Data as given in patent US11903912B2, “Composition for preventing and treating breast cancer including selenopsammaplin A as active ingredients” (Seoul National University R & DB Foundation, priority 2019, dated 2024).

Tests used:
MDA-MB-231 cells = assay: Cancer cell invasion (Transwell) test; assay type: cell-based, human; conditions: MDA-MB-231, Transwell, 50-400 nM, 24 hours
Experimental: The triple-negative breast cancer cell line MDA-MB-231 was spread at a concentration of 1×10^6 cells/well on a DMEM medium containing 10% FBS in a Transwell plate, cultured at 37° C. for 24 hours under a 5% CO2 condition, and then washed once with phosphate-buffered saline (PBS). Subsequently, the cells were treated with 50-400 nM compound 2 and 400 nM psammaplin A, and then cultured for 24 hours. After washing once with PBS, a membrane was attached to a slide glass, the degree of cell invasion was photographed using a microscope, and the results thereof are illustrated in FIG. 6A. The degree of invasion compared to a control using ImageJ software is illustrated in FIG. 6B.

[1] = tested on: EMT markers in MDA-MB-231 cells; assay: Protein expression of EMT markers, western blot; assay type: cell-based, human; conditions: MDA-MB-231, western blot, FIGS. 7E and 7F
Experimental: (§1) The triple-negative breast cancer cell line MDA-MB-231 was spread at a concentration of 2×10^6 cells/well on a DMEM medium containing 10% FBS in a 6-well plate, cultured at 37° C. for 24 hours under a 5% CO2 condition, and then washed twice with phosphate-buffered saline (PBS). Attached cells were recovered and washed twice with PBS, and then boiling 2× sample loading buffer (250 mM Tris-HCl (pH 6.8), 4% SDS, 10% glycerol, 0.006% bromophenol blue, 2% β-mercaptoethanol, 50 mM sodium fluoride, and 5 mM sodium orthovanadate) was added thereto to disrupt the cells and the cells were left at 100° C. for 10 minutes. After cooling, the cells were stored at […] and […] at 37° C. immediately before use in protein quantification and electrophoresis. 10 μg of proteins were electrophoresed at 100 V for 2 hours using a 12% SDS-polyacrylamide gel (#456-1036, Bio-Rad, Hercules, Calif.). The separated proteins were transferred to a PVDF membrane (ISEQ15150, Millipore, Bedford, Mass.) at 100 V for 1 hour, and a blocking buffer (5% non-fat dry milk in TBS containing 0.1% Tween-20 (TBST)) was injected thereinto to culture the proteins at room temperature for 1 hour. After washing three times with TBST for 5 minutes, the corresponding single antibody was diluted with 5% non-fat dry milk in TBST and allowed to react with the membrane at 4° C. for 18 hours. The membrane [ISEQ 1S150, Millipore, Bedford, Mass.] was washed three times with TBST for 10 minutes, and then horseradish peroxidase (HRP)-conjugated secondary antibodies were diluted with 2.5% non-fat dry milk in TBST at a ratio of 1:2,000 and allowed to react with the membrane at room temperature for 2 hours. After washing three times with TBST for 10 minutes, the reaction product was treated with a chemiluminescent reagent (LabFrontier, Suwon, Korea) to confirm the protein expression levels of E-cadherin, N-cadherin, vimentin, and beta-actin (Fuji Film Corp., Japan) using LAS-4000 (Fuji Film Corp., Japan), and the results thereof are illustrated in FIG. 7E. The proteins were quantified using ImageJ software, which are illustrated in FIG. 7F.

[2] = tested on: H3K79me2, E-cadherin, vimentin in breast tumors; assay: Cancer metastasis markers in tumor tissues, western blot; assay type: in vivo; conditions: tumors extracted from treated mice
Experimental: To verify that compound 2 is involved in the regulation of key factors such as H3K79me2, E-cadherin, and vimentin in vivo, the effect of compound 2 on the key factors in tumor tissues was analyzed using the following method.
as §1, with “[…] These were quantified using ImageJ software” for “After washing three times with TBST for 10 minutes, the reaction product was treated with a chemiluminescent reagent (LabFrontier, Suwon, Korea) to confirm the protein expression levels of E-cadherin, N-cadherin, vimentin,”, “and” for “and beta-actin (Fuji Film Corp., Japan) using LAS-4000 (Fuji Film Corp., Japan), and the results thereof”, “10B.” for “7E. The proteins were quantified using ImageJ software, which are illustrated in FIG. 7F.”

O=C(NCC[Se][Se]CCNC(=O)/C(Cc1ccccc1)=N/O)/C(Cc1ccccc1)=N/O [Compound 2, (2E,2′E)-N,N′-(diselenediylbis(ethane-2,1-diyl))bis(2-(hydroxyimino)-3-phenylpropanamide)]
invasion of breast cancer cells (MDA-MB-231 cells): effectively suppressed | protein expression of E-cadherin [1]: increased | protein expression of N-cadherin [1]: suppressed | protein expression of ZEB1 [1]: suppressed | protein expression of vimentin [1]: suppressed | E-cadherin in breast tumors [2]: increased in a concentration-dependent manner | histone methylation (H3K79me2) in breast tumors [2]: reduced in a concentration-dependent manner | vimentin in breast tumors [2]: reduced in a concentration-dependent manner
